This assay deals with T1, Recombinant human LTC4 synthase (Homo sapiens, UniProt Q16873).
T1 construct: made in house; host or cells: Pichia pastoris
T1 sequence (Q16873 1-150): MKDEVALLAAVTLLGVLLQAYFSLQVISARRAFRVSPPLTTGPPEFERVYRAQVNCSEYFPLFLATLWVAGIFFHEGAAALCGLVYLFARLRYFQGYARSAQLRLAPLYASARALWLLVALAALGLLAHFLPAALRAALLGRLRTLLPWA
Briefly: In vitro LTC4 synthase assay (LTA4 to LTC4, HTRF detection). Format: biochemical. Particulars: for inhibition at 10 µM: 5 min, total concentration of title compounds in the assay 10 μM. How it is done:
In the assay, LTC4 synthase catalyses the reaction where the substrate LTA4 is converted to LTC4. Recombinant human LTC4 synthase is expressed in Piccia pastoralis and the purified enzyme is dissolved in 25 mM tris-buffer pH 7.8 supplemented with 0.1 mM glutathione (GSH) and stored at −80° C. The assay is performed in phosphate buffered saline (PBS) pH 7.4 and 5 mM GSH in 384-well plates.
The following is added chronologically to each well:
1. 48 μL LTC4 synthase in PBS with 5 mM GSH. The total protein concentration in this solution is 0.5 μg/mL. 2. 1 μL inhibitor in DMSO (final concentration 10 μM). 3. Incubation of the plate at room temperature for 10 min. 4. 1 μL LTA4 (final concentration 2.5 μM). 5. Incubation of the plate at room temperature for 5 min. 6. 10 μL of the incubation mixture is analysed using homogenous time resolved fluorescent (HTRF) detection.
(In general: TR-FRET usually uses a lanthanide donor and a delayed reading to cut background.)

The mark [1] stands for this setting: Table 4, title compounds of Example 4.
Where [2] appears, read: title compounds of the Examples.

The structures appear in SMILES notation.

The term IC50 denotes the concentration that inhibits the measured activity by half. As a reminder, the inhibition is the relative decrease from the control value, in per cent.

As for `COc1ccc(Sc2cc(C(=O)O)cc(C(=O)c3ccc(N(C)c4ccc(Cl)cc4)cc3)c2)cc1OC` [4:7, 3-{4-[(4-Chlorophenyl)(methyl)amino]benzoyl}-5-(3,4-dimethoxyphenyl-sulfanyl)benzoic acid], the 50% inhibitory concentration (IC50) under setting [1] was determined as 328 nM.
As for `O=C(c1ccc(N(CC2CC2)c2ccc(Cl)cc2)cc1)c1ccc([S+]([O-])c2ccccc2)c(C(=O)O)c1` (stereo not shown) [Example 1:11, 5-{4-[(4-Chlorophenyl)(cyclopropylmethyl)amino]benzoyl}-2-phenylsulfinyl-benzoic acid], the IC50 under setting [2] was 26 nM.
On to `COc1cccc(Sc2cc(C(=O)O)cc(C(=O)c3ccc(N(C)c4ccc(Cl)cc4)cc3)c2)c1` [2:25, 3-(4-((4-Chlorophenyl)(methyl)amino)benzoyl)-5-(3-methoxyphenylsulfanyl)benzoic acid], for which the concentration for half-maximal inhibition (IC50) under setting [2] worked out at 143 nM.
Still for that read-out and setting: under `CN(c1ccc(Cl)cc1)c1ccc(C(=O)c2ccc(SCC34CCC(CC3O)C4(C)C)c(C(=O)O)c2)cc1` (stereo not shown) [2:4, 5-{4-[(4-Chlorophenyl)methylamino]benzoyl}-2-(2-hydroxy-7,7-dimethyl-bicyclo[2.2.1]-1-heptylmethylsulfanyl)benzoic acid] stands 130 nM; under `CN(c1ccc(Cl)cc1)c1ccc(C(=O)c2cc(Sc3ccc(F)c(F)c3)cc(C(=O)O)c2)cc1` [2:29, 3-(4-((4-Chlorophenyl)(methyl)amino)benzoyl)-5-(3,4-difluorophenylsulfanyl)benzoic acid], 88 nM.
The same measure, in the same setting: under `CN(c1ccc(Cl)cc1)c1ccc(C(=O)c2cc(Sc3ccccc3)cc(C(=O)O)c2)cc1` [2:30, 3-(4-((4-Chlorophenyl)(methyl)amino)benzoyl)-5-(phenysulfanyl)benzoic acid] stands 175 nM.
Consider `CN(c1ccc(Cl)cc1)c1ccc(C(=O)c2ccc([S+]([O-])c3ccc(F)c(F)c3)c(C(=O)O)c2)cc1` (stereo not shown) [1:3, 5-{4-[(4-Chlorophenyl)(methyl)amino]benzoyl}2-(3,4-difluorophenylsulfinyl)-benzoic acid], for which the inhibition at 10 µM was 100%. Moreover, under setting [2], the IC50 was found to be 107 nM.
For the compound `O=C(c1ccc([S+]([O-])c2cccc(Cl)c2)c(C(=O)O)c1)c1ccc(N(CC2CC2)c2ccc(Cl)cc2)cn1` (stereo not shown) [1:18, 2-(3-Chlorophenylsulfinyl)-5-{5-[(4-chlorophenyl)cyclopropylmethylamino]-pyridine-2-carbonyl}benzoic acid], the 50% inhibitory concentration (IC50) under setting [2] amounted to 31 nM.
For the compound `CCCCCC[S+]([O-])c1ccc(C(=O)c2ccc(N(CC3CC3)c3ccc(Cl)cc3)cc2)cc1C(=O)O` (stereo not shown) [Example 1:12, 5-{4-[(4-Chlorophenyl)cyclopropylmethylamino]benzoyl}-2-(1-hexylsulfinyl)-benzoic acid], the half-maximal inhibitory concentration (IC50) under setting [2] amounted to 29 nM.
Same read-out and setting: with `O=C(c1ccc(Sc2ccc(C(F)(F)F)cc2)c(C(=O)O)c1)c1ccc(N(CC2CC2)c2ccc(Cl)cc2)cn1` [2:13, 5-{5-[(4-Chlorophenyl)cyclopropylmethylamino]pyridine-2-carbonyl}-2-(4-trifluoromethylphenylsulfanyl)benzoic acid] the figure was 129 nM.
For `CN(c1ccc(Cl)cc1)c1ccc(C(=O)c2cc(Sc3cccc(OC(F)(F)F)c3)cc(C(=O)O)c2)cc1` [4:8, 3-{4-[(4-Chlorophenyl)(methyl)amino]benzoyl}-5-(3-(trifluoromethoxy)-phenylsulfanyl)benzoic acid], under setting [1], the IC50 came out at 148 nM.
Turning to `O=C(c1ccc(Sc2cccc(Cl)c2)c(C(=O)O)c1)c1ccc(N(CC2CC2)c2ccc(Cl)cc2)cn1` [2:18, 5-{5-[(4-Chlorophenyl)cyclopropylmethylamino]pyridine-2-carbonyl}-2-(3-chlorophenylsulfanyl)benzoic acid], the IC50 under setting [2] came to 46 nM.
For the compound `O=C(c1ccc([S+]([O-])c2ccc(Br)cc2)c(C(=O)O)c1)c1ccc(N(CC2CC2)c2ccc(Cl)cc2)cn1` (stereo not shown) [1:17, 2-(4-Bromophenylsulfinyl)-5-{5-[(4-chlorophenyl)cyclopropylmethylamino]-pyridine-2-carbonyl}benzoic acid], the half-inhibitory concentration (IC50) under setting [2] worked out at 34 nM.
The same measure, in the same setting: with `COc1ccc(Sc2ccc(C(=O)c3ccc(OCc4cccc(Cl)c4)cn3)cc2C(=O)O)cc1` [Example 2:22, 5-[5-(3-Chlorobenzyloxy)pyridine-2-carbonyl]-2-(4-methoxyphenyl-sulfanyl)benzoic acid] the figure was 252 nM; with `O=C(c1ccc(Sc2ccc(Cl)cc2)c(C(=O)O)c1)c1ccc(N(CC2CC2)c2ccc(Cl)cc2)cn1` [2:9, 5-{5-[(4-Chlorophenyl)cyclopropylmethylamino]pyridine-2-carbonyl}-2-(4-chlorophenylsulfanyl)benzoic acid], 74 nM; with `COc1ccc(Sc2ccc(C(=O)c3ccc(N(CC4CC4)c4ccc(Cl)cc4)cn3)cc2C(=O)O)cc1` [2:20, 5-{5-[(4-Chlorophenyl)cyclopropylmethylamino]pyridine-2-carbonyl}-2-(4-methoxyphenylsulfanyl)benzoic acid], 85 nM.
As to `CN(c1ccc(Cl)cc1)c1ccc(C(=O)c2ccc([S+]([O-])C3CCCCC3)c(C(=O)O)c2)cc1` (stereo not shown) [1:5, 5-{4-[(4-Chlorophenyl)(methyl)amino]benzoyl}-2-(cyclohexylsulfinyl)benzoic acid], the 50% inhibitory concentration (IC50) under setting [2] amounted to 134 nM.
As for `CCCCCCSc1cc(C(=O)O)cc(C(=O)c2ccc(N(C)c3ccc(Cl)cc3)cn2)c1` [4:3, 3-{5-[(4-Chlorophenyl)(methyl)amino]picolinoyl}-5-(1-hexyl)-sulfanylbenzoic acid], the IC50 under setting [1] came out at 215 nM.
As to `CN(c1ccc(Cl)cc1)c1ccc(C(=O)c2ccc([S+]([O-])CC34CCC(CC3O)C4(C)C)c(C(=O)O)c2)cc1` (stereo not shown) [1:10, 5-{4-[(4-Chlorophenyl)(methyl)amino]benzoyl}-2-[(2-hydroxy-7,7-dimethyl-bicyclo[2.2.1]-1-heptyl)methylsulfinyl]benzoic acid], the concentration for half-maximal inhibition (IC50) under setting [2] was 86 nM.
As for `CN(c1ccc(Cl)cc1)c1ccc(C(=O)c2cc(Sc3ccccc3)cc(C(=O)O)c2)nc1` [4:4, 3-{5-[(4-Chlorophenyl)(methyl)amino]picolinoyl}-5-phenylsulfanylbenzoic acid], the IC50 under setting [1] worked out at 135 nM.
On to `CN(c1ccc(Cl)cc1)c1ccc(C(=O)c2ccc([S+]([O-])Cc3ccccc3)c(C(=O)O)c2)cc1` (stereo not shown) [1:9, 2-(Benzylsulfinyl)-5-{4-[(4-chlorophenyl)(methyl)amino]benzoyl}benzoic acid], for which the concentration for half-maximal inhibition (IC50) under setting [2] turned out to be 109 nM.
In the case of `O=C(c1ccc(N(CC2CC2)c2ccc(Cl)cc2)cc1)c1ccc(Sc2ccccc2)c(C(=O)O)c1` [2:8, 5-{4-[(4-Chlorophenyl)cyclopropylmethylamino]benzoyl}-2-phenylsulfanyl-benzoic acid], under setting [2], the IC50 is 74 nM.
For the compound `CN(c1ccc(Cl)cc1)c1ccc(C(=O)c2ccc([S+]([O-])C3CCCC3)c(C(=O)O)c2)cc1` (stereo not shown) [1:4, 5-{4-[(4-Chlorophenyl)(methyl)amino]benzoyl}-2-(cyclopentylsulfinyl)benzoic acid], the IC50 under setting [2] came to 161 nM.
Consider `COc1ccc(Sc2cc(C(=O)O)cc(C(=O)c3ccc(N(C)c4ccc(Cl)cc4)cc3)c2)cc1OC` [2:27, 3-(4-((4-Chlorophenyl)(methyl)amino)benzoyl)-5-(3,4-dimethoxyphenylsulfanyl)benzoic acid], for which the half-maximal inhibitory concentration (IC50) under setting [2] worked out at 328 nM.
Turning to `CCCC[S+]([O-])c1ccc(C(=O)c2ccc(N(C)c3ccc(Cl)cc3)cc2)cc1C(=O)O` (stereo not shown) [1:7, 2-(1-Butylsulfinyl)-5-{4-[(4-chlorophenyl)(methyl)amino]benzoyl}benzoic acid], the IC50 under setting [2] is 160 nM.
Still for that read-out and setting: with `CN(c1ccc(Cl)cc1)c1ccc(C(=O)c2ccc([S+]([O-])c3ccccc3)c(C(=O)O)c2)cc1` (stereo not shown) [1:8, 5-{4-[(4-Chlorophenyl)(methyl)amino]benzoyl}-2-(phenylsulfinyl)benzoic acid] the figure was 82 nM.
For `CN(c1ccc(Cl)cc1)c1ccc(C(=O)c2cc(Sc3ccc(F)c(F)c3)cc(C(=O)O)c2)cc1` [4:9, 3-{4-[(4-Chlorophenyl)(methyl)amino]benzoyl}-5-(3,4-difluorophenyl-sulfanyl)benzoic acid], the 50% inhibitory concentration (IC50) under setting [1] was 88 nM.
As for `O=C(c1ccc(Sc2ccccc2Cl)c(C(=O)O)c1)c1ccc(N(CC2CC2)c2ccc(Cl)cc2)cn1` [2:10, 5-{5-[(4-Chlorophenyl)cyclopropylmethylamino]pyridine-2-carbonyl}-2-(2-chlorophenylsulfanyl)benzoic acid], the IC50 under setting [2] came out at 22 nM.
With `CN(c1ccc(Cl)cc1)c1ccc(C(=O)c2ccc([S+]([O-])c3ccc(Cl)cc3)c(C(=O)O)c2)cc1` (stereo not shown) [Example 1:2, 5-{4-[(4-Chlorophenyl)(methyl)amino]benzoyl}-2-(4-chlorophenylsulfinyl)benzoic acid], the inhibition at 10 µM worked out at 100%. In addition, the IC50 under setting [2] worked out at 66 nM.
On to `CN(c1ccc(Cl)cc1)c1ccc(C(=O)c2cc(Sc3ccccc3)cc(C(=O)O)c2)nc1` [2:24, 3-{5-[(4-Chlorophenyl)methylamino]pyridine-2-carbonyl}-5-phenylsulfanyl-benzoic acid], for which the half-inhibitory concentration (IC50) under setting [2] was 135 nM.
On the same count and under the same terms, with `CN(c1ccc(Cl)cc1)c1ccc(C(=O)c2cc(Sc3cccc(Cl)c3)cc(C(=O)O)c2)cc1` [2:26, 3-(4-((4-Chlorophenyl)(methyl)amino)benzoyl)-5-(3-chlorophenylsulfanyl)benzoic acid] the figure was 165 nM.
As to `CN(c1ccc(Cl)cc1)c1ccc(C(=O)c2ccc([S+]([O-])C34CC5CC(CC(C5)C3)C4)c(C(=O)O)c2)cc1` (stereo not shown) [1:6, 2-(1-Adamantylsulfinyl)-5-{4-[(4-chlorophenyl)methylamino]benzoyl}benzoic acid], the IC50 under setting [2] came out at 96 nM.

For the origin of these results see patent US20110319431A1, “Bis Aromatic Compounds for Use as LTC4 Synthase Inhibitors” (BIOLIPOX AB, priority 2009, published 2011).
